# From patent US5045566A, “Novel imidate insecticides” (ICI Americas Inc., priority 1989, dated 1991)
# What was measured:
# Assay type in all cases: in vivo
# [1] = tested on: Black Bean Aphid [Aphis fabae (Scop.)]; assay: Black bean aphid spray test on nasturtium (BBA), 48 hours; conditions: percent of test compound in sprayed solution
# Description: (§1) The compounds in Tables 1 and 2 above were tested for insecticidal activity using the following testing procedures. LC50 values, based on the results of these tests and calculated according to dosage-mortality curves, are expressed in Table 3.
# Black Bean Aphid [Aphis fabae (Scop.)]:
# Nasturtium plants (Tropaeolum sp.) approximately 5 cm tall, were transplanted into sandy loam soil in small cups and infested with 25-50 black bean aphids of mixed ages. Twenty-four hours later they were sprayed to the point of runoff with 50-50 acetone-water solutions of the test compounds. Treated plants were held in the greenhouse and mortality was recorded after 48 hours. Test concentrations ranged from 0.05% downward. The LC-50 value is expressed below in Table 3 under the heading "BBA" in terms of percent of the test compound in the sprayed solution.
# [2] = tested on: Cabbage Looper [Trichoplusia ni (Hubner)]; assay: Cabbage looper leaf dip (CL), 3-5 days; conditions: percent in solution, second-instar larvae
# Description: as §1
# Cabbage Looper [Trichoplusia ni (Hubner)]:
# Test compounds were diluted in a 50-50 acetone-water solution. Cotyledons of hyzini squash (Calabacita abobrinha), approximately 1×1.5 inches, were immersed in the test solutions for 2-3 seconds and placed on a wire screen to dry. The dried leaves were placed in petri dishes containing a moistened piece of filter paper and infested with 5 second-instar cabbage looper larvae. The dishes were placed in a high humidity chamber. Mortality of the larvae was recorded 3-5 days later. Test concentrations ranged from 0.1% downward. The LC-50 value is expressed below in Table 3 under the heading "CL" in terms of percent of the test compound in solution.
# [3] = tested on: Tobacco Budworm [Heliothis virescens (Fabricius)] eggs; assay: Tobacco budworm eggs (TBW-E); conditions: percent in solution; 2-day old eggs
# Description: as §1
# Tobacco Budworm [Heliothis virescens (Fabricius)]:
# (b). Eggs: Paper towel patches of 2-day old eggs of the tobacco budworm were dipped in acetone solutions of the test compound and placed in petri dishes containing a portion of larval rearing medium. Treated eggs were maintained at 78° F. and mortality was recorded after all control eggs had hatched and the young larvae were feeding on the media. Test concentrations ranged from 0.1% downward. The LC-50 value is expressed below in Table 3 under the heading "TBW-E" in terms of percent of the test compound in the solution.
# [4] = tested on: Housefly [Musca domestica]; assay: Housefly contact mortality in dishes (HF), 48 hours; conditions: μg of test compound per 25 female flies
# Description: as §1
# Housefly [Musca domestica]:
# Test compounds were diluted in acetone and aliquots pipetted onto the bottom of aluminum dishes. To ensure even spreading of the chemical on the bottom of the dishes, 1 ml of acetone containing 0.01% peanut oil was also added to each dish. After all solvents had evaporated, the dishes were placed in circular cardboard cages containing 25 female houseflies, 1-2 days old. The cages were covered on the bottom with cellophane and on the top with tulle netting, and each contained a sugar-water saturated cotton plug for maintenance of the flies. Mortality was recorded after 48 hours. Test levels ranged from 100 μg/25 female houseflies downward. The LC-50 value is expressed below in Table 3 under the heading "HF", in terms of μg of the test compound per 25 female flies.
Compound,LC50 BBA [1] [%],LC50 CL [2] [%],LC50 TBW E (eggs) [3] [%],LC50 HF [4] [µg]
CC(C)(C)C(=Nc1cccc(Cl)c1)OCc1cccc(Oc2ccccc2)c1 [Compound 12],> 0.05,0.008,> 0.1,> 100
CC1CC1C(=Nc1ccc(Cl)cc1)OCc1cccc(Oc2ccccc2)c1 (centres unmarked) [Compound 15],> 0.05,0.025,> 0.1,> 100
CC(C)C(=Nc1cc(Cl)c(Cl)cc1Cl)OCc1cccc(Oc2ccccc2)c1 [Compound 18],0.003,0.008,0.09,> 100
CC(C)C(=Nc1c(Cl)cc(Cl)cc1Cl)OCc1cccc(Oc2ccccc2)c1 [Compound 19],0.05,< 0.1,> 0.1,> 100
COC(C)C(=Nc1ccc(Cl)cc1)OCc1cccc(Oc2ccccc2)c1 (centres unmarked) [Compound 22],0.01,0.004,0.08,15
Clc1cccc(N=C(OCc2cccc(Oc3ccccc3)c2)C2CC2)c1 [Compound 24],0.01,0.005,0.1,25
CC(C)(C)C(=Nc1ccc(F)cc1)OCc1cccc(Oc2ccccc2)c1 [Compound 48],> 0.05,0.03,> 0.05,> 100
CC(C)C(=Nc1cc(F)ccc1F)OCc1cccc(Oc2ccccc2)c1 [Compound 56],0.03,0.01,> 0.05,91
CC(C)C(=Nc1cc(F)c(F)cc1F)OCc1cccc(Oc2ccccc2)c1 [Compound 58],0.003,0.002,0.06,16
COc1cc(N=C(OCc2cccc(Oc3ccccc3)c2)C(C)C)cc(C(F)(F)F)c1 [Compound 76],0.003,0.002,0.05,20
CC(C)C(=Nc1cc(C(F)(F)F)cc(C(F)(F)F)c1)OCc1cccc(Oc2ccccc2)c1 [Compound 78],0.03,0.0025,> 0.1,> 100
CC(C)C(=Nc1ccc(Br)cc1F)OCc1cccc(Oc2ccccc2)c1 [Compound 79],0.03,0.003,0.05,6
CC(C)C(=Nc1cc(C(F)(F)F)ccc1F)OCc1cccc(Oc2ccccc2)c1 [Compound 84],0.03,0.006,0.1,93
FC(F)(F)c1cccc(N=C(OCc2cccc(Oc3ccccc3)c2)C2CC2)c1 [Compound 86],< 0.05,0.013,,65
Cc1cc(N=C(OCc2cccc(Oc3ccccc3)c2)C(C)C)ccc1F [Compound 87],0.001,0.004,0.03,5
FC(F)(F)c1ccc(Oc2ccc(COC(=Nc3ccc(Cl)cc3)C(Cl)Cl)cc2)nc1 [Compound 453],> 0.05,0.1,,> 100
CC(C)C(=Nc1ccc2c(c1)OCO2)OCc1cccc(Oc2ccccc2)n1 [Compound 467],,0.003,0.04,6

Compound,LC50 BBA [1] [%],LC50 CL [2] [%],LC50 TBW E (eggs) [3] [%],LC50 HF [4] [µg]
CC(C)C(=Nc1ccc(F)c(Cl)c1)OCc1cccc(OCc2ccccc2)c1 [Compound 472],,0.0025,> 0.1,> 100
CC(C)C(=Nc1ccc(F)c(Cl)c1)OCc1ccc(F)c(Br)c1 [Compound 473],,0.025,> 0.1,> 100
CC(C)C(=Nc1ccc(F)c(Cl)c1)OCc1coc(Cc2ccccc2)c1 [Compound 474],,0.0012,> 0.1,8
CC(C)C(=Nc1cccc(C(F)(F)F)c1)OCc1ccc(OCc2ccccc2)cc1 [Compound 476],,0.015,> 0.1,> 100
C=CCOc1cccc(COC(=Nc2ccc(Cl)c(Cl)c2)C(C)C)c1 [Compound 481],,0.015,> 0.1,> 100
CC(C)C(=Nc1ccc(Cl)cc1)OCc1coc(Cc2ccccc2)c1 [Compound 484],,0.003,> 0.1,16
CC(C)C(=Nc1ccc(F)c(F)c1)OCc1coc(Cc2ccccc2)c1 [Compound 485],,> 0.1,> 0.1,24
CC(C)C(=Nc1ccc(F)c(Cl)c1)OCc1ccc(OCc2ccc(F)cc2)cc1 [Compound 487],,0.023,> 0.1,> 100
CC(C)C(=Nc1cccc(C(F)(F)F)c1)OCc1ccc(OCc2ccc(F)cc2)cc1 [Compound 488],,0.025,> 0.1,> 100
CC(C)C(=Nc1cccc(C(F)(F)F)c1)OCc1cccc(OCc2ccc(F)cc2)c1 [Compound 489],,< 0.1,> 0.1,> 100
CC(C)C(=Nc1ccc(F)cc1)OCc1coc(Cc2ccccc2)c1 [Compound 491],,0.0028,0.08,9
CC(C)C(=Nc1cccc(C(F)(F)F)c1)OCc1cccc(Oc2ccc(Br)cc2)n1 [Compound 493],,0.0008,0.05,36
Cc1ccc(Oc2cccc(COC(=Nc3ccc(F)c(Cl)c3)C(C)C)n2)cc1 [Compound 494],,0.003,> 0.1,34
Cc1ccc(Oc2cccc(COC(=Nc3cccc(C(F)(F)F)c3)C(C)C)n2)cc1 [Compound 495],,0.012,0.1,> 100
CC(C)C(=Nc1ccc(C(C)(C)C)cc1)OCc1cccc(Oc2ccccc2)n1 [Compound 496],,0.006,> 0.1,> 100
CC(C)C(=Nc1ccc(C(C)(C)C)cc1)OCc1cccc(Oc2ccc(Cl)cc2)n1 [Compound 497],,0.0075,> 0.1,> 100
